Data reported in ChEMBL document CHEMBL5608195, “Identification and biological evaluation of fused tetrahydroisoquinoline derivatives as Wnt/β-catenin signaling inhibitors to suppress colorectal cancer” (Eur J Med Chem, 2024).

Tests used:
HCT-116 [1] = experiment: Antiproliferative activity against human HCT-116 cells assessed as inhibition rate at 20 uM incubated for 24 hrs by MTT assay relative to control; assay type: functional
HCT-116 [2] = experiment: Antiproliferative activity against human HCT-116 cells incubated for 24 hrs by MTT assay; assay type: functional, cell-based; conditions: HCT-116, 24 h
RKO = experiment: Antiproliferative activity against human RKO cells incubated for 24 hrs by MTT assay; assay type: functional, cell-based

Structure (SMILES) | inhibition at 20 µM (HCT-116 [1]) [%] | IC50 (HCT-116 [2]) [µM] | IC50 (RKO) [µM]
CC12c3cc(O)ccc3CN1CCc1c2[nH]c2ccc(Cl)cc12 (stereo not drawn) | 26.9 |  | 
CC12c3cc(F)ccc3CCN1CCc1c2[nH]c2ccc(Cl)cc12 (stereo not drawn) | 80.7 |  | 
CC12c3cc(F)ccc3CC(=O)N1CCc1c2[nH]c2ccc(Cl)cc12 (stereo not drawn) | 49 |  | 
Cc1ccc2c(c1)CCN1CCc3c([nH]c4ccc(Cl)cc34)C21C (stereo not drawn) | 88.3 | 6.36 | 6.48
C[C@@]12c3ccc(Cl)cc3CCN1CCc1c2[nH]c2ccc(Cl)cc12 | 84 |  | 
CC12c3ccc(Cl)cc3CC(=O)N1CCc1c2[nH]c2ccc(Cl)cc12 (stereo not drawn) | 70.3 |  | 
Cc1ccc2c(c1)C1(C)c3[nH]c4ccccc4c3CCN1C2 (stereo not drawn) | 36 |  | 
COc1ccc2[nH]c3c(c2c1)CCN1CCc2ccccc2C31C (stereo not drawn) | 10.9 |  | 
COc1ccc2[nH]c3c(c2c1)CCN1CCc2cc(Cl)ccc2C31C (stereo not drawn) | 66.7 |  | 
Cc1ccc2[nH]c3c(c2c1)CCN1CCc2cc(Cl)ccc2C31C (stereo not drawn) | 22.8 |  | 
Cc1ccc2c(c1)C1(C)c3[nH]c4ccc(Cl)cc4c3CCN1CC2 (stereo not drawn) | 92.1 | 7.52 | 7.28
CC12c3ccccc3CCN1CCc1c2[nH]c2ccc(OCc3ccccc3)cc12 (stereo not drawn) | 20.4 |  | 
CC12c3ccccc3CCN1CCc1c2[nH]c2ccc(Br)cc12 (stereo not drawn) | 3.6 |  | 
C[C@]12c3ccc(Cl)cc3CCN1CCc1c2[nH]c2ccc(Cl)cc12 | 81 |  | 
Cc1ccc2[nH]c3c(c2c1)CCN1CCc2ccccc2C31C (stereo not drawn) | 59.5 |  | 
CC12c3ccc(F)cc3CCN1CCc1c2[nH]c2ccc(Cl)cc12 (stereo not drawn) | 88.7 |  | 
CC12c3ccccc3CCN1CCc1c2[nH]c2ccc(Cl)cc12 (stereo not drawn) | 83.7 |  | 
CC12c3ccccc3CCN1CCc1c2[nH]c2ccc(F)cc12 (stereo not drawn) | 7.8 |  | 
CC12c3cc(Cl)ccc3CCN1CCc1c2[nH]c2ccc(Cl)cc12 (stereo not drawn) | 89.1 | 6.77 | 6.84
COc1ccc2c(c1)C1(C)c3[nH]c4ccc(Cl)cc4c3CCN1CC2 (stereo not drawn) | 77 |  | 
CC12c3ccccc3CN1CCc1c2[nH]c2ccc(Cl)cc12 (stereo not drawn) | 43.8 |  | 
Cc1ccc2[nH]c3c(c2c1)CCN1Cc2ccccc2C31C (stereo not drawn) | 43.9 |  | 
CC12c3ccccc3CC(=O)N1CCc1c2[nH]c2ccccc12 (stereo not drawn) | 65.2 |  | 
CC12c3ccc(Cl)cc3CCN1CCc1c2[nH]c2ccc(Br)cc12 (stereo not drawn) | 3.6 |  | 
CC12c3ccc(Cl)cc3CCN1CCc1c2[nH]c2ccc(F)cc12 (stereo not drawn) | 18.4 |  | 
COc1ccc2[nH]c3c(c2c1)CCN1Cc2ccccc2C31C (stereo not drawn) | 28.9 |  | 
Cc1ccc2c(c1)C1(C)c3[nH]c4ccc(Cl)cc4c3CCN1C2 (stereo not drawn) | 64.6 |  | 
